Measurements from patent publication US5547962A, “5-amino-8-methyl-7-pyrrolidinylquinoline-3-carboxylic acid derivative” (priority 1993, dated 1996).
≈ marks a conversion by molar mass, not a printed value. Where two headings read alike, the source gives them in different places. Each block holds one molecule with its values, some of them ahead of it.

How the values were obtained:
[1] = system: CHL cells; assay: Chromosomal aberration test with a Chinese hamster lung cell line (CHL); format: cell-based
Protocol: The chromosomal aberration test was conducted with a Chinese hamster lung cell line (CHL). 2-(2-Furyl)-3-(5-nitro-2-furyl)acrylamide was used as a positive control. Cells treated with the test compounds were cultured for 6 h at 37° C. in 5% CO2 -humidified air. Following the 6 h treatment the cells were washed. Fresh medium was added to the washed cells and they were cultured for a further 18 h. Colcemide was added to the cultures 2 h before the fixation of chromosome preparation, in order to collect metaphase cells.

[2] = system: Male Hartley guinea pigs; format: in vivo; settings: 10 mg/kg i.v.; for phototoxicity, in words: UVA
Protocol: Male Hartley guinea pigs were intravenously administered test compounds at a dose of 10 mg/kg, and immediately exposed to UVA on their backs for 90 minutes.

[3] = system: male ICR mice; assay: Convulsions, intraperitoneal (i.p.) administration with fenbufen; settings: 100 mg/kg i.p., fenbufen 100 mg/kg orally
Protocol: Thirty minutes later, they were injected intraperitoneally with the test compounds at a dose of 100 mg/kg. Thereafter, the onset of convulsions was recorded.

[4] = system: Male Wistar rats; assay: Convulsions, intracerebroventricular (i.c.v.) administration with fenbufen; format: in vivo, rat; settings: 20 μg i.c.v., fenbufen 50 mg/kg i.p.
Protocol: Male Wistar rats weighing 180-220 g were anesthetized with sodium pentobarbital (45 mg/kg, i.p.) and fixed in a stereotaxic apparatus. For the intracerebroventricular injection, a 0.6 mm diameter stainless steel guide cannula was implanted in each rat, being positioned 1.5 mm above the left lateral cerebroventricle (A: 6.2, R: 1.0, H: +1.0), according to the atlas of De Groot (1959). The guide cannula was fixed with dental cement on the skull and it was closed with a 0.3 mm diameter stainless steel stylet. To prevent infection, 10,000 units of potassium penicillin G were injected intramuscularly. The rats were allowed a few days to recover from the surgery.
For the measurement of convulsions, 30 min after intraperitoneal injection of 50 mg/kg of fenbufen, 20 μg of the test compounds was given through a 0.3 mm diameter of stainless steel cannula with a polyethylene catheter, which was 1.5 mm longer than the guide cannula in order to be inserted into the […] cerebroventricle (H: +1.0). […] The position of the intracerebroventricular cannula was confirmed by the injection of 10 μl of 1% evans blue followed by sectioning of the brain of each rat which had been used in the experiment.

[5] = system: S. aureus FDA 209P JC-1; assay: Antibacterial activity, MIC by agar dilution; format: cell-based; settings: Staphylococcus aureus, FDA209P; laboratory standard strain, gram +
Text: (§1) The strains employed were as follows:
(§2) Staphylococcus aureus (S. aureus)

[6] = system: S. aureus HPC292; assay: Antibacterial activity, MIC by agar dilution; format: cell-based; settings: Staphylococcus aureus, clinically isolated strain, gram +
Text: as §1, §2

[7] = system: S. aureus HPC308; assay: Antibacterial activity, MIC by agar dilution; format: cell-based; settings: Staphylococcus aureus, clinically isolated strain, gram +
Text: as §1, §2

[8] = system: S. aureus HPC527; assay: Antibacterial activity, MIC by agar dilution; format: cell-based; settings: Staphylococcus aureus, clinically isolated strain, gram +
Text: as §1, §2

[9] = system: E. coli NIHJ JC-2; assay: Antibacterial activity, MIC by agar dilution; format: cell-based; settings: Escherichia coli, NIHJJC2; laboratory standard strain, gram -
Text: as §1
Escherichia coli (E. coli)

[10] = system: K. pneumoniae HNR828; assay: Antibacterial activity, MIC by agar dilution; format: cell-based; settings: Klebsiella pneumoniae, clinically isolated strain, gram -
Text: as §1
(§3) Klebsiella pneumoniae (K. pneumoniae)

[11] = system: K. pneumoniae HNR858; assay: Antibacterial activity, MIC by agar dilution; format: cell-based; settings: Klebsiella pneumoniae, clinically isolated strain, gram -
Text: as §1, §3

[12] = system: K. pneumoniae HNR869; assay: Antibacterial activity, MIC by agar dilution; format: cell-based; settings: Klebsiella pneumoniae, clinically isolated strain, gram -
Text: as §1, §3

[13] = system: K. pneumoniae PCI-602; assay: Antibacterial activity, MIC by agar dilution; format: cell-based; settings: Klebsiella pneumoniae, PCI602; laboratory standard strain, gram -
Text: as §1, §3

[14] = system: S. marcescens HNR1544; assay: Antibacterial activity, MIC by agar dilution; format: cell-based; settings: Serratia marcescens, clinically isolated strain, gram -
Text: as §1
(§4) Serratia marcescens (S. marcescens)

[15] = system: S. marcescens HNR1767; assay: Antibacterial activity, MIC by agar dilution; format: cell-based; settings: Serratia marcescens, clinically isolated strain, gram -
Text: as §1, §4

[16] = system: S. marcescens HNR1792; assay: Antibacterial activity, MIC by agar dilution; format: cell-based; settings: Serratia marcescens, clinically isolated strain, gram -
Text: as §1, §4

[17] = system: S. marcescens IAM 1184; assay: Antibacterial activity, MIC by agar dilution; format: cell-based; settings: Serratia marcescens, IAM1184; laboratory standard strain, gram -
Text: as §1, §4

[18] = system: E. cloacae 963; assay: Antibacterial activity, MIC by agar dilution; format: cell-based; settings: Enterobacter cloacae, laboratory standard strain, gram -
Text: as §1
(§5) Enterobacter cloacae (E. cloacae)

[19] = system: E. cloacae HNR1939; assay: Antibacterial activity, MIC by agar dilution; format: cell-based; settings: Enterobacter cloacae, clinically isolated strain, gram -
Text: as §1, §5

[20] = system: E. cloacae HNR1941; assay: Antibacterial activity, MIC by agar dilution; format: cell-based; settings: Enterobacter cloacae, clinically isolated strain, gram -
Text: as §1, §5

[21] = system: E. cloacae HNR1946; assay: Antibacterial activity, MIC by agar dilution; format: cell-based; settings: Enterobacter cloacae, clinically isolated strain, gram -
Text: as §1, §5

[22] = system: E. faecalis HPC948; assay: Antibacterial activity, MIC by agar dilution; format: cell-based; settings: Enterococcus faecalis, clinically isolated strain, gram +
Text: as §1
(§6) Enterococcus faecalis (E. faecalis)

[23] = system: E. faecalis HPC975; assay: Antibacterial activity, MIC by agar dilution; format: cell-based; settings: Enterococcus faecalis, clinically isolated strain, gram +
Text: as §1, §6

[24] = system: E. faecalis HPC984; assay: Antibacterial activity, MIC by agar dilution; format: cell-based; settings: Enterococcus faecalis, clinically isolated strain, gram +
Text: as §1, §6

[25] = system: A. calcoaceticus HNR904; assay: Antibacterial activity, MIC by agar dilution; format: cell-based; settings: Acinetobacter calcoaceticus, clinically isolated strain, gram -
Text: as §1
(§7) Acinetobacter calcoaceticus (A. calcoaceticus)

[26] = system: A. calcoaceticus HNR916; assay: Antibacterial activity, MIC by agar dilution; format: cell-based; settings: Acinetobacter calcoaceticus, clinically isolated strain, gram -
Text: as §1, §7

[27] = system: A. calcoaceticus HNR939; assay: Antibacterial activity, MIC by agar dilution; format: cell-based; settings: Acinetobacter calcoaceticus, clinically isolated strain, gram -
Text: as §1, §7

Compound: Cl.Nc1c(F)c(N2C[C@@H](N)C3(CC3)C2)cc2c1c(=O)c(C(=O)O)cn2C1CC1 [Reference Compound B, 5-amino-7-((S)-7-amino-5-azaspiro[2.4]hept-5-yl)-1-cyclopropyl-6-fluoro-1,4-dihydro-4-oxoquinoline-3-carboxylic acid hydrochloride]
Chromosomal aberration ([1]; Table 1, CHL cells, 3 μg/ml): + (10-20%)
Chromosomal aberration ([1]; Table 2, CHL cells, 3 μg/ml): + (10-20%)
Chromosomal aberration ([1]; Table 3, CHL cells, 3 μg/ml): + (10-20%)
Chromosomal aberration ([1]; Table 7, CHL cells, 3 μg/ml): + (10-20%)
toxicity (chromosomal aberration), in words ([1]; comparison to Tables 7 and 8): observed
death of CHL cells ([1]; treatment with 100 μg/ml): all cells died
phototoxicity, in words [2]: observed
Phototoxicity: number of animals with erythemas/number of animals tested ([2]; UVA 90 minutes, 24 h after irradiation): 3/5
Convulsions i.p.: number of animals with convulsions/number of animals tested [3]: 0/6

Compound: O=C(O)c1cn(C2CC2)c2cc(N3CCNCC3)c(F)cc2c1=O [Ciprofloxacin, ciprofloxacin]
Frequency of chromosomal aberration ([1]; Table 5-A, CHL cells, 100 μg/ml): - (<10%)
Convulsions i.c.v.: number of animals with convulsions/number of animals tested [4]: 3/3
Convulsions i.p.: number of animals with convulsions/number of animals tested [3]: 3/6

Compound: Nc1c(F)c(N2CC[C@H](N)C2)cc2c1c(=O)c(C(=O)O)cn2C1CC1 [Reference Compound E, 5-amino-7-((S)-3-amino-1-pyrrolidinyl)-1-cyclopropyl-6-fluoro-1,4-dihydro-4-oxoquinoline-3-carboxylic acid]
toxicity (chromosomal aberration), in words [1]: observed
phototoxicity, in words [2]: no phototoxicity
death of guinea pigs ([2]; phototoxicity test): death of two guinea pigs out of five

MIC [5]: 0.025 µg/mL
MIC [6]: 1.56 µg/mL
MIC [7]: 0.39 µg/mL
MIC [8]: 0.025 µg/mL
MIC [9]: 0.05 µg/mL (≈ 0.129 µM)
MIC [10]: 12.5 µg/mL (≈ 32.2 µM)
MIC [11]: 0.39 µg/mL (≈ 1 µM)
MIC [12]: 3.13 µg/mL (≈ 8.06 µM)
MIC [13]: 0.003 µg/mL (≈ 0.00772 µM)
MIC [14]: 0.1 µg/mL (≈ 0.257 µM)
MIC [15]: 25 µg/mL (≈ 64.4 µM)
MIC [16]: 6.25 µg/mL (≈ 16.1 µM)
MIC [17]: 0.39 µg/mL (≈ 1 µM)
MIC [18]: 0.05 µg/mL (≈ 0.129 µM)
MIC [19]: 0.39 µg/mL (≈ 1 µM)
MIC [20]: 12.5 µg/mL (≈ 32.2 µM)
MIC [21]: 0.39 µg/mL (≈ 1 µM)
MIC [22]: 0.39 µg/mL
MIC [23]: 1.56 µg/mL
MIC [24]: 0.2 µg/mL
MIC [25]: 6.25 µg/mL (≈ 16.1 µM)
MIC [26]: 0.025 µg/mL (≈ 0.0644 µM)
MIC [27]: 0.39 µg/mL (≈ 1 µM)
Compound: Cc1c(N2C[C@@H](N)C(C)(C)C2)c(F)c(N)c2c(=O)c(C(=O)O)cn(C3CC3)c12 [Example 16, 5-Amino-7-((S)-3-amino-4,4-dimethyl-1-pyrrolidinyl)-1-cyclopropyl-6-fluoro-1,4-dihydro-8-methyl-4-oxoquinoline-3-carboxylic acid]

Compound: N[C@H]1CCN(c2cc3c(cc2F)c(=O)c(C(=O)O)cn3C2CC2)C1 [Reference Compound D, 7-((S)-3-amino-1-pyrrolidinyl)-1-cyclopropyl-6-fluoro-1,4-dihydro-4-oxoquinoline-3-carboxylic acid]
Chromosomal aberration ([1]; Table 1, CHL cells, 100 μg/ml): - (<10%)
Chromosomal aberration ([1]; Table 2, CHL cells, 100 μg/ml): - (<10%)
